Assay results: patent US11642316B2, “Water-soluble curcumin mixture with high bioavailability and preparation method and application thereof” (HENAN ZHONGDA HENGYUAN BIOTECHNOLOGY STOCK CO., LTD., priority 2021, dated 2023)

Assay: Bioavailability test of water-soluble curcumin mixture in rats (plasma, HPLC-MS/MS)
Type: in vivo
Conditions: intragastric administration, 200 mg·kg^−1 calculated as curcumin, plasma 0.167-12 h
Source text: After experimental testing in rats, the bioavailability test method of water-soluble curcumin mixture was verified according to the “Guidelines for Validation of 9012 Biological Sample Quantitative Analysis Method” in the fourth appendix of the Pharmacopoeia of the People's Republic of China (2015 Edition). Specific steps are as follows:
24 Healthy SD (spontaneous mutant Danforth's short tail) rats were randomly divided into 4 groups (6 in each group) after being adaptively reared for one week;
In each group, about 0.3 mL of blood was collected from the orbit at 0.167, 0.5, 1, 1.5, 2, 3, 5, 8 and 12 hours after administration, and centrifuged at 4000 rpm for 10 minutes. The plasma was stored at −20° C. for later use.
Separating 100 μL of plasma, adding 0.3 mL of ethyl acetate, mixing for 2 min, centrifuging at 4000 rpm for 10 min, and separating the supernatant; adding 0.3 mL of ethyl acetate to the precipitate, mixing for 2 min, and centrifuging at 4000 rpm for 10 min, vacuum drying at 40° C. Adding 100 μL of methanol to the residue, wetting the centrifuge tube, mixing for 2 min, filtering with 0.22 μm microporous membrane, analyzing and testing.
HPLC-MS/MS with emodin as the internal standard was used for detection, and DAS2.0 software was used to calculate the pharmacokinetic parameters and compare the relative bioavailability.

AUC (012 h) (SD rats): 140.36 ng·h/mL
AUC(0-t) (SD, rat, plasma, po, 200 mg/kg, read-out: AUC (012 h)): 108 ng·h/mL
SMILES: COc1cc(/C=C/C(=O)CC(=O)/C=C/c2ccc(O)c(OC)c2)ccc1O [curcumin]
